This is an account of results in patent publication US20070031511A1, “Method of treatment” (priority 2003, published 2007).

Entries after “also recorded” stand apart in the source; their conditions may differ.

Assay [1] relates to IMGE-5 cells. Kind of assay: IMGE-5 cell proliferation, MTT assay. Format: cell-based, mice. Conditions: DFO 1 μM. (In general: Tetrazolium assays rely on reduction of a dye to a coloured formazan, in cell work by metabolically active cells.)
In assay [2] the test system is IMGE-5 cells. Kind of assay: Wound healing / cell migration assay. Type of assay: cell-based, mice. On the procedure:
The IMGE-5 cell line was established from the gastric mucosa of mice transgenic for a temperature-sensitive mutant of the SV40 large T antigen (Hollande et al, 2001). IMGE-5 cells were generally grown at 33° C. in DMEM containing 1 unit/ml γ-interferon, 10% FBS, 100 U/ml penicillin, and 100 μg/ml streptomycin (permissive conditions). For all experiments, cells were transferred to 39° C. in the same medium without […] (non-permissive conditions), where they display differentiated characteristics such as expression of functional adherens and tight junctions. All experiments have been performed on cells between passages 20 and 35.
In order to assess the effects of different stimuli on cell migration, wound healing experiments were performed as detailed elsewhere (Hollande et al, 1997). In brief, IMGE-5 cells were grown in 12-well plates in DMEM at 33° C. until they reached 80% confluence, then shifted to 39° C. and starved of serum for 24 h. The confluent monolayer was wounded using a 20 μl-pipette tip, and cells were then washed 3 times with phosphate-buffered saline (PBS: 2.7 mM KCl, 1.5 MM KH2PO4, 142 mM NaCl, and 10 mM Na2HPO4, pH 6.95) and treated with or without different compounds in DMEM with antibiotics. Morphology and migration of cells were observed and photographed immediately, and after treatment for 17 and 24 h. Wound width was measured at six different positions on the 24 h photographs, and averages calculated.

Assay [3] deals with rectal mucosa. Kind of assay: Proliferation in the rectal mucosa of rectally defunctioned rats (metaphase-arrested cells). Conditions: DFO 400 mg/kg intraperitoneally thrice weekly, 4 weeks; Ggly 2.5 nmol/kg/hr. Type of assay: in vivo. On the procedure: DFO (400 mg/kg) was administered intraperitoneally thrice weekly, and bismuth ions were administered as colloidal bismuth subcitrate (135 mg/kg/12 hours) by oral gavage 5 days per week. After 4 weeks, the rats were injected with vincristine to arrest cycling cells in metaphase, and sacrificed 3 hrs later. Crypt heights in the rectal mucosa, and the number of metaphase arrested cells per crypt, were then determined microscopically.

Assay [4] has as its system hepatoma cell lines. To be noted: Kicic et al, 2001; cited from earlier work.
Assay [5] concerns human hepatomas. Conditions: Hann et al, 1992; cited from earlier work.
For assay [6], the target named is T1, CCK-2 receptor (Homo sapiens, UniProt P32239).
T1 sequence (P32239 1-447): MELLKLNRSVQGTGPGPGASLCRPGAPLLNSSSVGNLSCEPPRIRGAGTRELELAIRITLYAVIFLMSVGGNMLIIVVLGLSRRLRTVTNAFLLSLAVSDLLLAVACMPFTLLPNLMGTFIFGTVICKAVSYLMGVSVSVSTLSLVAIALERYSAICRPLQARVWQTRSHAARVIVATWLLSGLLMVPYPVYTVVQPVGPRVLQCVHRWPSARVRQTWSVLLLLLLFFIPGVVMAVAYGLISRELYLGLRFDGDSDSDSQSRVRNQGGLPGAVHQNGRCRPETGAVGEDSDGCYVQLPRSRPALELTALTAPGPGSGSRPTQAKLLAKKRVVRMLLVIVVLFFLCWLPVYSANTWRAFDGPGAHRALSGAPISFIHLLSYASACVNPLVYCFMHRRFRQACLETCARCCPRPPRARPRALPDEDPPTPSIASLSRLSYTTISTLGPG
Description: Gamide-stimulated inositol phosphate production in COS-7 cells transfected with the CCK-2 receptor. Format: cell-based. Also on record: COS-7 cells transiently transfected with CCK-2 receptor cDNA; expressed in transfected cells; host or cells: COS-7. Conditions: 1 μM DFO, 10 nM Gamide. How it is done:
Intracellular inositol phosphate production was determined as described previously (Qian et al, 1993). IMGE-5 cells (10^5 cells/ml) were plated in 24-multiwell culture plates in DMEM supplemented with 10% FBS, 200 IU/ml penicillin and 200 μg/ml streptomycin. 24 h later, cells were incubated with DMEM supplemented with antibiotics and Myo-[2-^3H]inositol (2.5 μCi/well) and shifted to 39° C. for 16 h. Cells were then washed with pre-warmed DMEM and incubated (20-30 minutes, 37° C.) with DMEM supplemented with 20 mM LiCl. Loaded cells were then washed in 1 ml of IP buffer (135 mM NaCl, 20 mM N-(2-hydroxyethyl)piperazine-N′-(2-ethanesulfonic acid), 2 mM CaCl2, 1.2 mM MgSO4, 1 mM ethylene glycol-bis(2-aminoethylether)-N,N,N′,N′-tetraacetic acid, 10 mM LiCl, and 0.5% bovine serum albumin, pH 7.45) and incubated with or without agonist in a final volume of 0.5 ml of IP buffer. After 1-h incubation at 37° C., the reaction was stopped by removing the incubation medium and adding 1 ml of a mixture of ethanol/HCl (2000:1; v/v). One ml of each aliquot was applied to a column containing 1.6 ml of a 1:2 (v/v) Dowex AG-1-X8 anion exchange resin in distilled water. The columns were washed with 4 ml of distilled water, followed by 4 ml of 40 mM HCOONH4, and inositol phosphates were eluted with 4 ml of 1 M HCOONH4. The radioactivity of each eluate was counted after addition of Complete phase combining system solution (Amersham, UK). For the positive control, IMGE-5 cells were incubated with a combination of 30 mM NaF and 10 μM AlCl3 under the same experimental conditions.
Gamide-stimulated inositol phosphate production was measured in COS-7 cells transfected with the CCK-2 receptor. […] Bismuth ions alone had no effect on inositol phosphate production in CCK-2 receptor-transfected COS-7 cells and HT29 cells, even at the highest concentration tested.
We then investigated the role of the individual glutamates in biological activity. The effects of the mutants GamideE7A and GamideE8,9A on inositol phosphate production in COS-7 cells transiently transfected with the CCK-2 receptor were compared.

In assay [7] the test system is IMGE-5 cells. Description: IMGE-5 cell proliferation, [3H]-thymidine incorporation. Format: cell-based, mice. How it is done:
In some cases cell proliferation was also measured by [^3H]-thymidine incorporation as described previously (Oiry et al., 2000). Briefly, IMGE-5 cells (10^5/well) were seeded in 24-well plates in medium containing 10% FBS and 1 unit/ml γ-interferon. On the next day cells were serum starved and shifted to 39° C. for 24 hr. Cells were then incubated with or without various compounds at 39° C. for 17 h in medium supplemented with 0.2% bovine serum albumin only. Cells were incubated with 0.5 μCi of [^3H] thymidine in the same medium at 39° C. for 4 h, washed twice with PBS (2.7 mM KCl, 142 mM NaCl, 1.5 mM KH2PO4, 10 mM Na2HPO4, pH 6.95) containing 0.2% bovine serum albumin and incubated at 4° C. for 30 min with 5% trichloroacetic acid. Finally cells were washed with 95% ethanol to remove unincorporated [^3H] thymidine, and lysed with 1 M NaOH. Lysates were transferred to counting vials and neutralized with 1M HCl. The radioactivity of each lysate was counted in a β-counter after the addition of 10 ml of Pico-fluor 40 solution (Packard, Meriden, Conn.).
In some experiments IMGE-5 cells were seeded in a 96-well plate at a density of 3-5×10^3 cells/well in.DMEM containing 10% FBS, and cultured at 33° C.. On the following day, the cells were serum-starved at 33° C. for 24 h. […] The cells were cultured at 39° C. for 24 h, and then harvested using a NUNC cell harvester. The amount of ^3H-thymidine incorporated through DNA synthesis was detected with a β-counter (Packard, Meriden, Conn.). […]

A short description of assay [8]: 1H NMR titration of Ggly fragments with ferric citrate. Type of assay: binding. Conditions: pH 5.3, 278 K, read-out: Apparent Kd for ferric ions from shift of the Glu10 amide resonance. How it is done:
The peptides LE5AYG, LE5A, E5AY and E5A (approximately 2 mM) were dissolved in H2O with 5 or 10% ^2H2O. […] Sequence-specific ^1H NMR resonance assignments were made from two-dimensional nuclear Overhauser enhancement spectroscopy (NOESY) and total correlation spectroscopy (TOCSY).
The apparent dissociation constants, Kd, for the complexes between ferric ions and the nonapeptide LE5AYG or the octapeptide LE5AY were obtained from the change in chemical shift of the Glu10 amide proton on addition of ferric citrate using the program Sigmaplot (Jandel Scientific, San Rafael, Calif.), by linear regression of the data to the equation 1/δ=Kd/Δ·1/[Fe^3+]+1/Δ where δ is the change in chemical shift, Δ is the maximum change in chemical shift, and [Fe^3+] is the concentration of added ferric ions. Measurement of Inositol Phosphate Production
In order to define the ligands involved in ferric ion binding, we next investigated the effect of ferric ions on the NMR spectra of the peptides. Ferric ion titration experiments were carried out by addition of 20, 50, or 200 mM ferric citrate solution to the peptides. The pH was maintained at 5.3 by addition of small amounts of NaO^2H or ^2HCl. Concentration, pH, temperature and use of ferrric citrate were in keeping with the conditions that were employed in earlier examples in order to prevent precipitation of peptide or ferric hydroxide. […]

For the compound `CC(=O)N(O)CCCCCNC(=O)CCC(=O)N(O)CCCCCNC(=O)CCC(=O)N(O)CCCCCN` [DFO, desferrioxamine], the “Effect on Ggly-stimulated IMGE-5 cell proliferation” value in assay [1] (MTT and thymidine assays) is listed as “completely blocked”. In addition, the “Reduction of Gamide-stimulated IMGE-5 cell proliferation” value in assay [1] (MTT, 72 h) is recorded as 60%. In addition, the “Effect on Ggly-stimulated IMGE-5 cell migration” value in assay [2] (DFO 1 μM) is reported as “completely blocked”. Besides, in assay [3], the “Effect on stimulation of proliferation of the rectal mucosa by Ggly” value is given as “significantly reduced”. Moreover, the “Inhibition of proliferation of hepatoma cell lines in vitro” value in assay [4] is on record as “effective inhibitors”. Further, in assay [5], the “Inhibition of human hepatomas” value is on record as “effective inhibitor”. Moreover, in assay [6], the “Effect on Gamide-stimulated inositol phosphate production” value is recorded as “had no effect”.

Take LEEEEEAYG [LE5AYG]: the “Stimulation of cell migration compared with Ggly” value in assay [2] (100 nM peptide, 24 h) is reported as “more effective than Ggly”. In assay [2] (100 nM peptide, DFO in the medium), the “Effect of DFO on peptide-stimulated migration” value is “reversed by inclusion of DFO”. Besides, the “S (%), maximum % stimulation” value in assay [7] (IMGE cells, thymidine uptake, best fit at saturating concentration) turned out to be 45.8%. The “Stimulation of proliferation of IMGE cells” value in assay [7] (incorporation of [3H]-thymidine) is recorded as “significantly stimulated proliferation”. For the same compound, the “Effect of DFO on proliferation induced by the peptide” value in assay [7] (peptide 100 nM, plus or minus 1 μM DFO, [3H]-thymidine incorporation) was “completely blocked; also recorded: significantly blocked by DFO”. Moreover, the Kd in assay [8] was 7 mM.
